Consider 17 molecules from patent US20260085067A1, “CYCLIC SULFONAMIDE RIBONUCLEOTIDE REDUCTASE (RNR) INHIBITORS AND USES THEREOF” (Boundless Bio, Inc., priority 2022, published 2026).

pIC50: −log10 of the molar value. Bounds are passed on as bounds.

Assay [1] has as its system pCHK1 (S345) in Colo320 DM cells. The assay is described as follows: Alphalisa assay, detection of pCHK1 (S345) in Colo320 DM cells. The assay is classed as cell-based, human. The note with it: Homo sapiens, COLO 320DM, compound overnight (approximately 16 hours). The method in brief:
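Colo320 DM cells plated overnight, then exposed to compound for about 16 h at 37 °C (DMSO <0.5%). Cells lysed and phospho-CHK1 (S345) quantified by AlphaLisa SureFire with sequential 60 min acceptor and donor incubations at room temperature.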

A further assay addresses T1, RNR (RNR1:RNR2 1:1) (Homo sapiens, UniProt P23921).
T1 sequence (P23921 1-792): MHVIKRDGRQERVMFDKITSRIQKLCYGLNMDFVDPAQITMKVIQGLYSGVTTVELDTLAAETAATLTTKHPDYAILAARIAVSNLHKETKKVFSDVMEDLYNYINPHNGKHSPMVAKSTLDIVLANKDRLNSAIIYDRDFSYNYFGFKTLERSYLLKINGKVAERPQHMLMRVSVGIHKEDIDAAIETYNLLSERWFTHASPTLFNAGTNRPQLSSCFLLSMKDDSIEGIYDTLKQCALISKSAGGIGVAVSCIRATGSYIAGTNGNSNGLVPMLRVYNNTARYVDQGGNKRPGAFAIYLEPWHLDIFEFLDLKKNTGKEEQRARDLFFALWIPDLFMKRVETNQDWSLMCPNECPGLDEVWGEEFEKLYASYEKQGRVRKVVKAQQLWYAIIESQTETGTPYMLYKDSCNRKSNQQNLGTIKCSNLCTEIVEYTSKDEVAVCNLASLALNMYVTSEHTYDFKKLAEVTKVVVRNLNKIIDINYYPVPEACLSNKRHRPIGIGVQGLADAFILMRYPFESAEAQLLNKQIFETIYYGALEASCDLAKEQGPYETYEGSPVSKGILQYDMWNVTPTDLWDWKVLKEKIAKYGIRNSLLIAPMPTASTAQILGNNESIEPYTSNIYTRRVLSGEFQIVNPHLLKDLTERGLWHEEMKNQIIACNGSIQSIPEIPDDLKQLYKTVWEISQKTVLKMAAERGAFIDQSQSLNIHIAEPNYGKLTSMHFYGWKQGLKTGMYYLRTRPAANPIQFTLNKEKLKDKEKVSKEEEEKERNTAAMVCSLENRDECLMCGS
Kind of assay: RNR enzyme activity, rapid-fire mass spectrometry (RF/MS) assay. The assay is classed as biochemical. To be noted: [RNR] 50 nM, 1:1 RNR1:RNR2; CDP 5 μM; ATP 1 mM; 37° C., 45 min; compounds screened up to 50 μM. The method in brief:
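Human RNR (50 nM final, RNR1:RNR2 1:1) pre-incubated 15 min at room temperature, then reacted 45 min at 37 °C with 5 μM CDP and 1 mM ATP, no NADPH. Reaction quenched with 6% HCOOH; product quantified by rapid-fire mass spectrometry.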

As to `Cc1ccc(F)c([C@@H](C)[C@@H](c2n[nH]c(=O)o2)N2CCOc3c(ccc(Cl)c3CN(C)C)S2(=O)=O)c1C` [Example 55, 5-((1S,2R)-1-(7-chloro-6-((dimethylamino)methyl)-1,1-dioxido-3,4-dihydro-2H-benzo[b][1,4,5]oxathiazepin-2-yl)-2-(6-fluoro-2,3-dimethylphenyl)propyl)-1,3,4-oxadiazol-2 (3H)-one], the pIC50 in assay [1] was 5.30 to 6.00; against RNR (RNR1:RNR2 1:1), above 7.70.
The like results for `CC(=O)N1CN([C@H](c2n[nH]c(=O)o2)[C@H](C)c2c(F)ccc(C)c2C)S(=O)(=O)c2ccc(Cl)cc21` [Example 56, 5-((1S,2R)-1-(4-acetyl-6-chloro-1,1-dioxido-3,4-dihydro-2H-benzo[e][1,2,4]thiadiazin-2-yl)-2-(6-fluoro-2,3-dimethylphenyl)propyl)-1,3,4-oxadiazol-2 (3H)-one] were, in that order, 5.30 to 6.00 and above 7.70.
For `Cc1ccc(F)c([C@@H](C)[C@@H](c2n[nH]c(=O)o2)N2CN(C3CNC3)c3cc(Cl)ccc3S2(=O)=O)c1C` [Example 57, 5-((1S,2R)-1-(4-(azetidin-3-yl)-6-chloro-1,1-dioxido-3,4-dihydro-2H-benzo[e][1,2,4]thiadiazin-2-yl)-2-(6-fluoro-2,3-dimethylphenyl)propyl)-1,3,4-oxadiazol-2 (3H)-one] the same measures were 4.30 to 5.00 and 7.00 to 7.70.
The like results for `Cc1ccc(F)c([C@@H](C)[C@@H](c2n[nH]c(=O)o2)N2CN([C@@H]3CCNC3)c3cc(Cl)ccc3S2(=O)=O)c1C` [Example 58, 5-((1S,2R)-1-(6-chloro-1,1-dioxido-4-((R)-pyrrolidin-3-yl)-3,4-dihydro-2H-benzo[e][1,2,4]thiadiazin-2-yl)-2-(6-fluoro-2,3-dimethylphenyl)propyl)-1,3,4-oxadiazol-2 (3H)-one] were, in that order, 4.30 to 5.00 and 7.00 to 7.70.
Consider `Cc1ccc(F)c([C@@H](C)[C@@H](c2n[nH]c(=O)o2)N2CN([C@H]3CCNC3)c3cc(Cl)ccc3S2(=O)=O)c1C` [Example 59, 5-((1S,2R)-1-(6-chloro-1,1-dioxido-4-((S)-pyrrolidin-3-yl)-3,4-dihydro-2H-benzo[e][1,2,4]thiadiazin-2-yl)-2-(6-fluoro-2,3-dimethylphenyl)propyl)-1,3,4-oxadiazol-2 (3H)-one], for which the figures for the pIC50 (in assay [1]; against RNR (RNR1:RNR2 1:1)) were 5.00 to 5.30 and above 7.70, respectively.
Consider `Cc1ccc(F)c([C@@H](C)[C@@H](c2n[nH]c(=O)o2)N2CN(C)c3c(ccc(Cl)c3CN3CCCCC3)S2(=O)=O)c1C` [Example 61, 5-((1S,2R)-1-(6-chloro-4-methyl-1,1-dioxido-5-(piperidin-1-ylmethyl)-3,4-dihydro-2H-benzo[e][1,2,4]thiadiazin-2-yl)-2-(6-fluoro-2,3-dimethylphenyl)propyl)-1,3,4-oxadiazol-2 (3H)-one], for which the negative-log IC50 (pIC50) in assay [1] was 4.30 to 5.00; on RNR (RNR1:RNR2 1:1), 6.00 to 7.00.
The like results for `Cc1ccc(F)c([C@@H](C)[C@@H](c2n[nH]c(=O)o2)N2CN(C[C@@H]3CCCO3)c3cc(Cl)ccc3S2(=O)=O)c1C` [Example 62, 5-((1S,2R)-1-(6-chloro-1,1-dioxido-4-(((S)-tetrahydrofuran-2-yl)methyl)-3,4-dihydro-2H-benzo[e][1,2,4]thiadiazin-2-yl)-2-(6-fluoro-2,3-dimethylphenyl)propyl)-1,3,4-oxadiazol-2 (3H)-one] were, in that order, at least 6.00 and above 7.70.
The like results for `COCCN1CN([C@H](c2n[nH]c(=O)o2)[C@H](C)c2c(F)ccc(C)c2C)S(=O)(=O)c2ccc(Cl)nc21` [Example 63, 5-((1S,2R)-1-(6-chloro-4-(2-methoxyethyl)-1,1-dioxido-3,4-dihydro-2H-pyrido[2,3-e][1,2,4]thiadiazin-2-yl)-2-(6-fluoro-2,3-dimethylphenyl)propyl)-1,3,4-oxadiazol-2 (3H)-one] were, in that order, at least 6.00 and above 7.70.
The like results for `CC(=O)c1c(Cl)ccc2c1N(C)CN([C@H](c1n[nH]c(=O)o1)[C@H](C)c1c(F)ccc(C)c1C)S2(=O)=O` [Example 64, 5-((1S,2R)-1-(5-acetyl-6-chloro-4-methyl-1,1-dioxido-3,4-dihydro-2H-benzo[e][1,2,4]thiadiazin-2-yl)-2-(6-fluoro-2,3-dimethylphenyl)propyl)-1,3,4-oxadiazol-2 (3H)-one] were, in that order, at least 6.00 and 7.00 to 7.70.
Turning to `Cc1ccc(F)c([C@@H](C)[C@@H](c2n[nH]c(=O)o2)N2CN(C3CN(C)C3)c3cc(Cl)ccc3S2(=O)=O)c1C` [Example 65, 5-((1S,2R)-1-(6-chloro-4-(1-methylazetidin-3-yl)-1,1-dioxido-3,4-dihydro-2H-benzo[e][1,2,4]thiadiazin-2-yl)-2-(6-fluoro-2,3-dimethylphenyl)propyl)-1,3,4-oxadiazol-2 (3H)-one], the pIC50 in assay [1] was at least 6.00; against RNR (RNR1:RNR2 1:1) it was above 7.70.
The like results for `Cc1ccc(F)c([C@@H](C)[C@@H](c2n[nH]c(=O)o2)N2CN(C)c3cc(O)ccc3S2(=O)=O)c1C` [Example 66, 5-((1S,2R)-2-(6-fluoro-2,3-dimethylphenyl)-1-(6-hydroxy-4-methyl-1,1-dioxido-3,4-dihydro-2H-benzo[e][1,2,4]thiadiazin-2-yl)propyl)-1,3,4-oxadiazol-2 (3H)-one] were, in that order, 4.30 to 5.00 and 7.00 to 7.70.
For `Cc1ccc(F)c([C@@H](C)[C@@H](c2n[nH]c(=O)o2)N2CN(S(C)(=O)=O)c3cc(Cl)ccc3S2(=O)=O)c1C` [Example 67, 5-((1S,2R)-1-(6-chloro-4-(methylsulfonyl)-1,1-dioxido-3,4-dihydro-2H-benzo[e][1,2,4]thiadiazin-2-yl)-2-(6-fluoro-2,3-dimethylphenyl)propyl)-1,3,4-oxadiazol-2 (3H)-one], the pIC50 was 5.00 to 5.30 in assay [1] and 6.00 to 7.00 against RNR (RNR1:RNR2 1:1).
The like results for `Cc1ccc(F)c([C@@H](C)[C@@H](c2n[nH]c(=O)o2)N2CN(C)c3cc(Cl)cc(C(C)O)c3S2(=O)=O)c1C` (stereo partly drawn) [Example 68, 5-((1S,2R)-1-(6-chloro-8-(1-hydroxyethyl)-4-methyl-1,1-dioxido-3,4-dihydro-2H-benzo[e][1,2,4]thiadiazin-2-yl)-2-(6-fluoro-2,3-dimethylphenyl)propyl)-1,3,4-oxadiazol-2 (3H)-one] were, in that order, at least 6.00 and 7.00 to 7.70.
Take `COCc1cc2c(cc1Cl)OCCN([C@H](c1n[nH]c(=O)o1)[C@H](C)c1c(F)ccc(C)c1C)S2(=O)=O` [Example 69, 5-((1S,2R)-1-(7-chloro-8-(methoxymethyl)-1,1-dioxido-3,4-dihydro-2H-benzo[b][,4,5]oxathiazepin-2-yl)-2-(6-fluoro-2,3-dimethylphenyl)propyl)-1,3,4-oxadiazol-2 (3H)-one]: the negative-log IC50 (pIC50) is below 4.30 in assay [1] and 5.00 to 6.00 on RNR (RNR1:RNR2 1:1).
Consider `COCc1cc(Cl)cc2c1S(=O)(=O)N([C@H](c1n[nH]c(=O)o1)[C@H](C)c1c(F)ccc(C)c1C)CN2C` [Example 70, 5-((1S,2R)-1-(6-chloro-8-(methoxymethyl)-4-methyl-1,1-dioxido-3,4-dihydro-2H-benzo[e][1,2,4]thiadiazin-2-yl)-2-(6-fluoro-2,3-dimethylphenyl)propyl)-1,3,4-oxadiazol-2 (3H)-one], for which the pIC50 in assay [1] was 5.30 to 6.00; against RNR (RNR1:RNR2 1:1), 7.00 to 7.70.
With `COCc1cc(Cl)cc2c1S(=O)(=O)N([C@H](c1n[nH]c(=O)o1)[C@H](C)c1c(F)ccc(C)c1C)CCO2` [Example 71, 5-((1S,2R)-1-(7-chloro-9-(methoxymethyl)-1,1-dioxido-3,4-dihydro-2H-benzo[b][1,4,5]oxathiazepin-2-yl)-2-(6-fluoro-2,3-dimethylphenyl)propyl)-1,3,4-oxadiazol-2 (3H)-one], the negative-log IC50 (pIC50) is at least 6.00 in assay [1] and 6.00 to 7.00 against RNR (RNR1:RNR2 1:1).
As to `Cc1ccc(F)c([C@@H](C)[C@@H](c2n[nH]c(=O)o2)N2CN(C)c3cc(Cl)cc(CO)c3S2(=O)=O)c1C` [Example 72, 5-((1S,2R)-1-(6-chloro-8-(hydroxymethyl)-4-methyl-1,1-dioxido-3,4-dihydro-2H-benzo[e][1,2,4]thiadiazin-2-yl)-2-(6-fluoro-2,3-dimethylphenyl)propyl)-1,3,4-oxadiazol-2 (3H)-one], the pIC50 was at least 6.00 in assay [1] and above 7.70 against RNR (RNR1:RNR2 1:1).
